According to patent US20050208058A1, “Compositions and methods for modulating cell division” (priority 2003, published 2005):
d = 2'-deoxy (DNA)

What was measured:
RPE cells = test: Ki-67 staining of siRNA-treated cells; type: cell-based, human; details: vs silamin; FIG. 2B
Method: To further study the effects of silencing centrosomal genes, the following cell cycle experiments were performed using RPE cells. In immunofluorescence experiments, cells were delivered by OLIGOFECTAMINE in a media solution containing between 1-100 nanomolar concentration of siRNAs. After 4 hours of incubation with lipofectamine, cells were washed, and cell cycle progression was assayed by (i) treating cells with 5-Bromo-2′-deoxyuridine (BrDU from Sigma, St Louis, Mo.) for 24 hours and staining for BrDU or (ii) staining cells with antibody to Ki-67 (BD Biosciences) according to manufacturer's instructions. BrDU treatment and staining were performed as follows: after 50-70 hours incubation with siRNA, BrDU was added to cells at a final concentration of 5 μg/ml. Cells were fixed in −20° C. methanol and then treated with 2N HCL at 22° C. for 30 minutes, incubated with 1:500 mouse anti-BrdU antibody (Becton Dickinson, Palo Alto, Calif.), and labeled with 1:1,000 goat FITC-mouse antibody (Molecular Probes, Inc.). Cells were also treated with 4′,6-diamidino-2-phenylindole (DAPI) (Molecular Probes) according to the manufacturer's instructions. Cells were prepared, imaged, and the resulting images were deconvolved as described in Example 1.
FIG. 2B confirms the results in FIG. 2A using a different immunofluorescence marker for cell cycle progression. […]

p53 = test: Immunofluorescence of p53 and phosphorylated p53 (α-Pser33-p53) localization; type: cell-based, human; details: vs silamin
Method: A number of experiments were conducted to determine if p53 is required for the cell cycle arrest phenotype described herein. FACS analysis of tandem siRNA-treated cells was performed as described in Example 2. BrDU and DAPI imaging was performed as described in Example 2. Intracellular p53 was visualized using anti-p53 antibody that is specific for activated p53 (i.e., p53 phosphorylated at Serine 33) (“α-Pser33-p53” provided by Yoichi Taya and described in Kishis et al., J. Biol. Chem., 276:39115-3922, 2001)
Translocation of p53 into the nucleus caused by depletion of centrosomal proteins was also observed by immunofluorescence. […] Relatively little p53 translocated from the cytoplasm to the nucleus of silamin.
An antibody specifically reactive for phosphorylated p53 (α-Pser33-p53) was used to determine the phosphorylated state of p53 that accumulates in the nucleus as a result of GCP2 gene product depletion. In FIG. 6F, the left panels depict cells treated with silamin; the right panels depict cells treated with siGCP2. […] The two upper panels show a merged view of (i) the bottom panels and (ii) the same cells stained with DAPI. […] This nuclear localization is confirmed by the overlapping DAPI staining.

For “UCUCGUACUCCAGAAGACU (siRNA; RNA, 3' dTdT, backbone not given here) [siGCP2, siRNA directed to GCP2]”, the “cells expressing Ki67” value (RPE cells) was “Very few cells”, the “p53 accumulation in nucleus (immunofluorescence)” value (p53; FIG. 6E) was “substantially more p53 accumulated in nucleus” and the “localization of activated p53 (α-Pser33-p53 staining)” value (p53; FIG. 6F) was “activated p53 was detected only in the nucleus”.
